Measurements from paper PMC9127750, “Structure-based design of CDC42 effector interaction inhibitors for the treatment of cancer” (Cell reports, 2022).

System: WM3248 melanoma cells, 486 antibodies
Assay: Reverse phase protein arrays (RPPA);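 on RPPA ACC1.R.C: ratio of treated to vehicle (0 µM) normalized linear protein signal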;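 on RPPA AMPK.a2 pS345.R.V: ratio of treated to vehicle (0 µM) normalized linear protein signal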;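 on RPPA AMPKa pT172.R.C: ratio of treated to vehicle (0 µM) normalized linear protein signal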;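 on RPPA ASNS.R.V: ratio of treated to vehicle (0 µM) normalized linear protein signal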
Type: cell-based, Human
Settings: 5 uM
Excerpt: Pellets were snap frozen in liquid nitrogen and shipped to MD Anderson Cancer Center core RPPA facility for RPPA analysis (Table S5). Three biological replicates for each sample were generated.
Nomenclatures on the RPPA heatmaps: name_of_antibody.species_of_antibody.status_of_antibody. V - antibody validated; C - validation of antibody in progress; Q - antibody nonspecific; E – under evaluation; antibodies raised in M - mouse, G - goat, R - rabbit, or T - rat.

CN(C)c1cccc(Nc2cc(-c3ccccc3)nc(C3CCNCC3)n2)c1 [ARN22089, N1,N1-dimethyl-N3-(6-phenyl-2-(piperidin-4-yl)pyrimidin-4-yl)benzene-1,3-diamine]
RPPA EMA.M.C (Average): 1.019 | RPPA ENY2.M.C (Average): 0.945 | RPPA ER.a.R.V (Average): 1.031 | RPPA ER.a_pS118.R.V (Average): 1.194 | RPPA ERCC1.R.C (Average): 0.974 | RPPA ERCC5.R.C (Average): 0.991 | RPPA ERRalpha.R.V (Average): 1.000 | RPPA EVI1.R.V (Average): 0.976 | RPPA Elk1_pS383.R.C (Average): 1.029 | RPPA Enolase.2.R.V (Average): 1.011 | RPPA EphA2.R.V (Average): 0.963 | RPPA EphA2_pS897.R.C (Average): 0.963 | RPPA Erk5.R.V (Average): 1.061 | RPPA Ets.1.R.V (Average): 0.910 | RPPA FABP5.R.C (Average): 0.807 | RPPA FAK.R.C (Average): 1.005 | RPPA FAK_pY397.R.V (Average): 1.015 | RPPA FANCD2.R.V (Average): 1.011 | RPPA FASN.R.V (Average): 0.986 | RPPA FGF.basic.R.C (Average): 0.990 | RPPA FN14.R.C (Average): 1.084 | RPPA FOXM1.R.V (Average): 1.005 | RPPA FTO.R.V (Average): 0.940 | RPPA Fibronectin.R.V (Average): 0.998 | RPPA FoxO3a_pS318_S321.R.C (Average): 0.976 | RPPA G6PD.R.V (Average): 0.982 | RPPA GATA3.M.V (Average): 0.852 | RPPA GATA6.R.V (Average): 0.999 | RPPA GCLC.R.C (Average): 1.009 | RPPA GCLM.R.V (Average): 0.973 | RPPA GCN5L2.R.V (Average): 1.028 | RPPA GGPS1.M.V (Average): 0.917 | RPPA GRB2.R.V (Average): 1.049 | RPPA GRB7.R.V (Average): 1.025 | RPPA GSK.3a.b.M.V (Average): 0.977 | RPPA GSK.3a.b_pS21_S9.R.V (Average): 0.983 | RPPA Gab2.R.V (Average): 1.019 | RPPA Gli1.R.C (Average): 1.002 | RPPA Gli3.R.C (Average): 0.909 | RPPA Glucocorticoid.Receptor.R.V (Average): 1.019 | RPPA Glutamate.D1.2.R.V (Average): 0.907 | RPPA Glutaminase.R.C (Average): 0.909 | RPPA Granzyme.B.R.V (Average): 1.098 | RPPA Grp75.R.C (Average): 0.983 | RPPA Gys_pS641.R.V (Average): 1.021 | RPPA H2AX_pS139.R.C (Average): 1.019 | RPPA H2AX_pS140.M.C (Average): 0.923 | RPPA HER2.M.V (Average): 0.962 | RPPA HER2_pY1248.R.V (Average): 1.025 | RPPA HER3_pY1289.R.C (Average): 0.983 | RPPA HES1.R.V (Average): 1.187 | RPPA X4E.BP1.R.V (Average): 1.200 | RPPA X4E.BP1_pS65.R.V (Average): 1.011 | RPPA X4E.BP1_pT37_T46.R.V (Average): 1.016 | RPPA X14.3.3.zeta.R.V (Average): 0.987 | RPPA X14.3.3βR.V (Average): 1.006 | RPPA X14.3.3εM.C (Average): 0.962 | RPPA X53BP1.R.V (Average): 0.978 | RPPA b.Actin.R.C (Average): 0.929 | RPPA b.Catenin.R.V (Average): 0.915 | RPPA b.Catenin_pT41_S45.R.V (Average): 1.024 | RPPA c.Abl.R.V (Average): 1.084 | RPPA c.Abl_pY412.R.C (Average): 1.056 | RPPA c.IAP2.R.C (Average): 1.003 | RPPA eEF2.R.C (Average): 0.913 | RPPA eEF2K.R.V (Average): 0.916 | RPPA eIF4E.R.V (Average): 1.118 | RPPA eIF4E_pS209.R.V (Average): 1.025 | RPPA eIF4G.R.C (Average): 1.047 | RPPA level HLA.DQA1.R.V (Average): 0.948 | RPPA level HLA.DR.DP.DQ.DX.R.C (Average): 0.928 | RPPA level HMHA1.R.V (Average): 1.133 | RPPA level HNRNPK.R.V (Average): 0.988 | RPPA level HSP27.M.C (Average): 1.008 | RPPA level HSP27_pS82.R.V (Average): 1.113 | RPPA level HSP60.R.V (Average): 1.017 | RPPA level HSP70.R.C (Average): 1.003 | RPPA level Hexokinase.I.R.C (Average): 0.909 | RPPA level Hexokinase.II.R.V (Average): 0.992 | RPPA level Hif.1αR.C (Average): 1.051 | RPPA level Histone.H3.R.V (Average): 0.963 | RPPA level Histone.H3_pS10.R.V (Average): 0.786 | RPPA level IGF1R_pY1135_Y1136.R.V (Average): 1.035 | RPPA level IGFBP2.R.V (Average): 0.875 | RPPA level IGFBP3.M.V (Average): 0.957 | RPPA level IGFRb.R.C (Average): 1.062 | RPPA level IL.6.R.C (Average): 1.050 | RPPA level IMP3.R.C (Average): 0.997 | RPPA level IR.b.R.C (Average): 1.131 | RPPA level IRF.1.R.V (Average): 1.000 | RPPA level IRF.3.R.V (Average): 1.007 | RPPA level IRS1.R.V (Average): 1.078 | RPPA level IRS2.R.C (Average): 0.971 | RPPA level JAB1.M.C (Average): 0.973 | RPPA level JNK2.R.V (Average): 0.889 | RPPA level JNK_pT183_Y185.R.C (Average): 1.026 | RPPA level Jak2.R.V (Average): 1.011 | RPPA level KAP1.R.V (Average): 0.915 | RPPA level KEAP1.R.V (Average): 0.914 | RPPA level LC3A.B.R.C (Average): 0.914 | RPPA level LCN2.R.V (Average): 1.165 | RPPA level LDHA.R.C (Average): 0.789 | RPPA level LRP6_pS1490.R.V (Average): 1.065 | RPPA level Lasu1.R.V (Average): 0.902 | RPPA level Lck.R.V (Average): 0.925 | RPPA level Lyn.R.V (Average): 0.878 | RPPA level MACC1.R.V (Average): 1.021 | RPPA level MAPK_pT202_Y204.R.C (Average): 1.079 | RPPA level MCT4.R.V (Average): 0.958 | RPPA level MDM2_pS166.R.V (Average): 0.899 | RPPA level MEK1.R.V (Average): 1.584 | RPPA level MEK1_pS217_S221.R.V (Average): 1.125 | RPPA level MERIT40.R.C (Average): 0.975 | RPPA level METTL3.R.V (Average): 0.920 | RPPA level MIF.R.C (Average): 1.010 | RPPA level MIG6.R.V (Average): 1.024 | RPPA level MITF.R.V (Average): 0.967 | RPPA level MLH1.M.V (Average): 0.943 | RPPA level MLKL.R.V (Average): 0.967 | RPPA level MMP2.R.V (Average): 0.995 | RPPA level MMP14.R.V (Average): 0.964 | RPPA level MR1.M.C (Average): 1.033 | RPPA level MRAP.R.C (Average): 1.061 | RPPA level MSH2.R.C (Average): 0.932 | RPPA level MSH6.R.C (Average): 0.925 | RPPA level MSI2.R.C (Average): 1.004 | RPPA level MTCO1.M.V (Average): 0.944 | RPPA level MTSS1.M.C (Average): 0.998 | RPPA level Mcl.1.R.V (Average): 1.076 | RPPA level MelanA.R.C (Average): 1.025 | RPPA level Melanoma.gp100.R.C (Average): 1.061 | RPPA level Merlin.R.C (Average): 0.894 | RPPA level Midkine.R.V (Average): 1.001 | RPPA level Mitofusin.1.R.V (Average): 1.053 | RPPA level Mitofusin.2.R.V (Average): 1.013 | RPPA level mTOR.R.V (Average): 1.016 | RPPA level mTOR_pS2448.R.C (Average): 1.025 | c.Jun_pS73.R.V RPPA level (Average): 0.983 | c.Kit.R.V RPPA level (Average): 0.895 | c.Met_pY1234_Y1235.R.V RPPA level (Average): 1.062 | c.Myc.R.C RPPA level (Average): 1.010 | cGAS.R.V RPPA level (Average): 1.020 | cdc2_pY15.R.C RPPA level (Average): 1.200 | RPPA A.Raf.R.V (B.1): 0.964 | RPPA A.Raf_pS299.R.C (B.1): 1.002 | RPPA ACC1.R.C (B.1): 1.160 | RPPA ACC_pS79.R.V (B.1): 0.974 | RPPA ACSL1.R.V (B.1): 1.052 | RPPA ACVRL1.R.C (B.1): 1.027 | RPPA ADAR1.M.V (B.1): 0.990 | RPPA ALKBH5.R.V (B.1): 1.061 | RPPA AMPK.a2_pS345.R.V (B.1): 0.982 | RPPA AMPKa.R.C (B.1): 1.010 | RPPA AMPKa_pT172.R.C (B.1): 0.679 | RPPA ARID1A.R.C (B.1): 0.955 | RPPA ASNS.R.V (B.1): 1.050 | RPPA ATM.R.V (B.1): 1.017 | RPPA ATM_pS1981.R.V (B.1): 1.023 | RPPA ATP5A.M.C (B.1): 1.186 | RPPA ATP5H.R.V (B.1): 1.203 | RPPA ATR.R.V (B.1): 1.027 | RPPA ATRX.R.C (B.1): 0.816 | RPPA ATR_pS428.R.C (B.1): 0.959
